The target of the test is T1, IKur in human atrial myocytes (Homo sapiens, UniProt P22460).
T1 construct: Human myocytes were isolated from specimens of right atrial appendage obtained from patients; endogenous in cells; host or cells: human atrial myocytes from right atrial appendage of patients undergoing cardiopulmonary bypass
As to the kind of experiment: Voltage clamp measurement of IKur block (rested state, use-dependent, rate-dependent) in human atrial myocytes. It counts as cell-based. The settings on record: for inhibition at 0.03 µM / inhibition at 0.1 µM / Rate-Dpdnt Ratio / Use-Dpdnt Ratio / inhibition at 0.3 µM / inhibition at 1 µM: human atria; for Rate-Dpdnt Ratio: 3 Hz vs 1 Hz, last pulse, <1 = rate-dependent; for Use-Dpdnt Ratio: 10th vs 1st pulse @ 1 Hz, <1 = use-dependent; for selective blockade of IKur (in words): relative to other cardiac K+ channels. An excerpt: B. Measurement of IKur in Human Atrial Myocytes
Isolation of Human Atrial Myocytes:
Human myocytes were isolated from specimens of right atrial appendage obtained from patients undergoing cardiopulmonary bypass, using a modification of the procedure described by Fermini B, Wang Z, Duan D and Nattel S., "Differences in rate dependence of transient outward current in rabbit and human atrium" Am. J. Physiol. […] All tissues were collected in accordance with Temple University School of Medicine Institutional guidelines. […] Tissue samples were quickly immersed in cold (0-4° C.) cardioplegia solution containing (in mM/L): 50 KH2 PO4, 8 MgSO4, 10 NaHCO3, 5 adenosine, 25 taurine, 140 glucose, and 100 mannitol, pH 7.4 and bubbled with 100% O2. […] The tissue was gently agitated by continuous bubbling with 100% O2 for 5 min. […] The supernatant was removed after 40 min and discarded. The chunks were then incubated in a solution of the same ionic composition but supplemented with only collagenase and […]. Microscopic examination of the medium was performed every 10-20 min to determine the number and quality of isolated cells. When the yield appeared maximal, the tissue chunks were suspended in a modified Kraftbruhe solution containing (in mM/L): 25 KCl, 10 KH2 PO4, 25 taurine, 0.5 EGTA, 22 glucose, 55 glutamic acid, and 0.1% bovine albumin, pH 7.3 (22-24° C.) and gently triturated using a large bore Pasteur pipette. The supernatant was collected in a 50 ml centrifuge tube. […] Cells were used within 2-24 hr after isolation.
A small aliquot of the solution containing the isolated human atrial myocytes was placed in a 1-ml chamber mounted on the stage of an inverted microscope. Five minutes were allowed for cell adhesion to the bottom of the chamber. To record IKur, human atrial myocytes were superfused with a solution of the same ionic composition as that used for Kv1.5. An alternative external solution was sometimes used in which NaCl was replaced with NMDG (formal name: N-methyl-d-glucamine) to inhibit INa.
Currents were elicited by 150 ms depolarizing test pulses to +40 mV from a holding potential of -50 mV to inactivate Ito and INa. The amplitude of IKur was measured as the amplitude of the time-dependentcurrent at the end of the test pulse, relative to the holding current level. […] All experiments were performed at room temperature (22-24° C.).
C. Measurement of Use-Dependent and Rate-Dependent Block.
Pulses were applied in 10 second long trains delivered after 30 second rest intervals at frequencies of 1 Hz (10 pulses) or 3 Hz (30 pulses). Percent block of the current is defined as the % decrease in the current amplitude produced by an agent during a given pulse relative to the control current amplitude for that pulse. Rested-state block is the block of the current during the first pulse in a train following the 30 sec rest period. Use-dependent block is block that occurs to a progessively greater extent with each successive depolarization in a train or sequence of pulses or depolarizations delivered at a given rate or frequency. Thus, during a train of 10 depolarizations at frequency of 1 Hz, use-dependent block is assessed as the ratio of the amount of block for the 10th pulse relative to block for the 1st pulse (rested state block) of the train. Rate-dependent block is block that occurs to a greater extent or preferentially at faster rates of depolarization or heart rates. Thus, rate-dependent block is assessed as the ratio of the amount of block of the current during the last pulse of the 10 sec train at 3 Hz vs. 1 Hz. Consequently, ratios of less than one (<1) are indicative of use-dependentand rate-dependent block and the lower the ratio the greater the degree of use and rate dependence.

[1] abbreviates: 30 nM, 1st pulse @ 1 Hz, +40 mV from -50 mV, read-out: Average % Block, Rested State, 1st pulse.
Setting [2] is: 30 nM, 10th pulse @ 1 Hz, read-out: Average % Block, Use-Dpdnt, 10th pulse.
Setting [3] is: 30 nM, 30th pulse @ 3 Hz, read-out: Average % Block, Rate-Dpdnt, 30th pulse.
Setting [4] is: 100 nM, 1st pulse @ 1 Hz, read-out: Average % Block, Rested State, 1st pulse.
Setting [5] is: 100 nM, 10th pulse @ 1 Hz, read-out: Average % Block, Use-Dpdnt, 10th pulse.
[6] abbreviates: 100 nM, 30th pulse @ 3 Hz, read-out: Average % Block, Rate-Dpdnt, 30th pulse.

Where two headings read alike, the source gives them in different places.

T1 sequence (P22460 whole entry): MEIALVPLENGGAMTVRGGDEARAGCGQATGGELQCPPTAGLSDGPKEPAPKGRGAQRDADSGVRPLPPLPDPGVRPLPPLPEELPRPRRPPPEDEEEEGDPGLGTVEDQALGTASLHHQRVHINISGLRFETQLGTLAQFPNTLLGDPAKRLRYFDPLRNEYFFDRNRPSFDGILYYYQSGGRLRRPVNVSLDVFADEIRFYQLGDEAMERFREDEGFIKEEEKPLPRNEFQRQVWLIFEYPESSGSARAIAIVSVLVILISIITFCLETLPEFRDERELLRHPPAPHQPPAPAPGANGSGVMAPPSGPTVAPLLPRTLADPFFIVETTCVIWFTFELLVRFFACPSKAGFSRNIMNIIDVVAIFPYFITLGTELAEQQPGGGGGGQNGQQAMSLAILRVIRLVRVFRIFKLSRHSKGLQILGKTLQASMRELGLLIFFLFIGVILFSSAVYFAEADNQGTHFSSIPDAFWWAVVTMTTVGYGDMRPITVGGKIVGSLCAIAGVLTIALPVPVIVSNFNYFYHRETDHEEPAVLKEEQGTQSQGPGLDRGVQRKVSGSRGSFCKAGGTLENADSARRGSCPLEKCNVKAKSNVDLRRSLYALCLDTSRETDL

Consider `CC1CCC(C(C)C)C(P(=O)(c2ccccc2)c2ccccc2)C1` (stereo not drawn) [A, (2-Isopropyl-5-methylcyclohexyl)diphenylphosphine oxide], for which the inhibition at 0.03 µM reads like this: under setting [1], 21.9%; under setting [2], 33%; under setting [3], 48.4%. The inhibition at 0.1 µM amounted to 35.6% under setting [4], 59.7% under setting [5] and 75.7% under setting [6]. Further, under “human atrial myocytes”, the “rate-dependent block of IKur (in words)” value is recorded as “strong rate-dependent profile”. For the same compound, the “use-dependent block of IKur (in words)” value runs as follows: (human atrial myocytes) “use-dependentblockade”; (human atrial myocytes, listed as (2-isopropyl-5-methylcyclohexyl)diphenyl-phosphine oxide) “strong use-dependent profile”.

Turning to `Cc1cc(C)c(CP(=O)(c2ccccc2)c2ccccc2)c(-c2ccc(F)c(C)c2)c1` [B, 2-(Diphenylphosphinylmethyl)-4'-fluoro-3,5,3'-trimethyl-biphenyl], the inhibition at 0.1 µM is, setting by setting: under setting [4], 10.4%; under setting [5], 17.8%; under setting [6], 11.6%. Moreover, the “Rate-Dpdnt Ratio” value runs as follows: (100 nM) 1.53; (300 nM) 0.93. Also, the “Use-Dpdnt Ratio” value runs as follows: (100 nM) 0.58; (300 nM) 0.82. Besides, the inhibition at 0.3 µM (300 nM, 1st pulse @ 1 Hz, read-out: Average % Block, Rested State, 1st pulse) is 25.8%; the inhibition at 0.3 µM (300 nM, 10th pulse @ 1 Hz, read-out: Average % Block, Use-Dpdnt, 10th pulse) was determined as 31.3%; the inhibition at 0.3 µM (300 nM, 30th pulse @ 3 Hz, read-out: Average % Block, Rate-Dpdnt, 30th pulse) turned out to be 33.8%. The “use-dependent block of IKur (in words)” value (human atrial myocytes) was “use-dependentblockade”. Further, under “human atrial myocytes”, the “selective blockade of IKur (in words)” value is given as “selective blockade”.

For the compound `COc1ccc(-n2nc(Sc3ccc(Cl)cc3)c(C)c(C#N)c2=O)cc1` [C, 6-(4-Chlorophenylthio)-2-(4-methoxyphenyl)-5-methyl-3-oxo-2,3-dihydropyridazine-4-carbonitrile], the inhibition at 0.03 µM is, setting by setting: under setting [1], 35.7%; under setting [2], 43.2%; under setting [3], 42.9%. For the same compound, the “Rate-Dpdnt Ratio” value reads like this: (30 nM) 1.01; (100 nM) 1.13. In addition, the “Use-Dpdnt Ratio” value reads like this: (30 nM) 0.83; (100 nM) 0.94. Further, the inhibition at 0.1 µM by setting is: under setting [4], 63.8%; under setting [5], 67.9%; under setting [6], 60.1%. Also, the IC50 (first pulse of 10 at 1 Hz, +40 mV from -50 mV, read-out: Rested State IC50, IKur in Human Atrium) was 130 nM. For the same compound, the “use-dependent block of IKur (in words)” value (human atrial myocytes) is given as “use-dependentblockade”. Besides, the “selective blockade of IKur (in words)” value (human atrial myocytes) is on record as “selective blockade”.

For `COc1ccc(-n2nc(Sc3ccc(C)cc3)c(C)c(C#N)c2=O)cc1` [D], the inhibition at 0.1 µM runs as follows: under setting [4], 61%; under setting [5], 68%. Further, the “Use-Dpdnt Ratio” value is, setting by setting: (100 nM) 0.90; (1000 nM) 1.02. In addition, the inhibition at 1 µM (1000 nM, 1st pulse @ 1 Hz, read-out: Average % Block, Rested State, 1st pulse) came out at 81.7% and the inhibition at 1 µM (1000 nM, 10th pulse @ 1 Hz, read-out: Average % Block, Use-Dpdnt, 10th pulse) is 80%. For the setting “human atrial myocytes”, the “use-dependent block of IKur (in words)” value is given as “use-dependentblockade”. In addition, the “selective blockade of IKur (in words)” value (human atrial myocytes) is “selective blockade”.

By IC50 is commonly meant the midpoint of a concentration-inhibition curve.
